Experiments:
Type in all cases: functional
HL-60(TB) = experiment: Antiproliferative activity against human HL-60 (TB) cells assessed as cell growth at 10 uM incubated for 48 hrs by sulforhodamine B assay relative to control; details: read-out: Activity
K562 = experiment: Antiproliferative activity against human K562 cells assessed as cell growth at 10 uM incubated for 48 hrs by sulforhodamine B assay relative to control; details: read-out: Activity
MOLT-4 = experiment: Antiproliferative activity against human MOLT-4 cells assessed as cell growth at 10 uM incubated for 48 hrs by sulforhodamine B assay relative to control; details: read-out: Activity
SR = experiment: Antiproliferative activity against human SR cells assessed as cell growth at 10 uM incubated for 48 hrs by sulforhodamine B assay relative to control; details: read-out: Activity
NCI-H226 = experiment: Antiproliferative activity against human NCI-H226 cells assessed as cell growth at 10 uM incubated for 48 hrs by sulforhodamine B assay relative to control; details: read-out: Activity
NCI-H322M = experiment: Antiproliferative activity against human NCI-H322M cells assessed as cell growth at 10 uM incubated for 48 hrs by sulforhodamine B assay relative to control; details: read-out: Activity
COLO 205 = experiment: Antiproliferative activity against human COLO 205 cells assessed as cell growth at 10 uM incubated for 48 hrs by sulforhodamine B assay relative to control; details: read-out: Activity
HCC 2998 = experiment: Antiproliferative activity against human HCC 2998 cells assessed as cell growth at 10 uM incubated for 48 hrs by sulforhodamine B assay relative to control; details: read-out: Activity
HCT-116 [1] = experiment: Antiproliferative activity against human HCT-116 cells assessed as cell growth at 10 uM incubated for 48 hrs by sulforhodamine B assay relative to control; details: read-out: Activity
HT-29 = experiment: Antiproliferative activity against human HT-29 cells assessed as cell growth at 10 uM incubated for 48 hrs by sulforhodamine B assay relative to control; details: read-out: Activity
KM12 = experiment: Antiproliferative activity against human KM12 cells assessed as cell growth at 10 uM incubated for 48 hrs by sulforhodamine B assay relative to control; details: read-out: Activity
SW-620 = experiment: Antiproliferative activity against human SW-620 cells assessed as cell growth at 10 uM incubated for 48 hrs by sulforhodamine B assay relative to control; details: read-out: Activity
SF-268 = experiment: Antiproliferative activity against human SF-268 cells assessed as cell growth at 10 uM incubated for 48 hrs by sulforhodamine B assay relative to control; details: read-out: Activity
SF-295 = experiment: Antiproliferative activity against human SF-295 cells assessed as cell growth at 10 uM incubated for 48 hrs by sulforhodamine B assay relative to control; details: read-out: Activity
SF-539 = experiment: Antiproliferative activity against human SF-539 cells assessed as cell growth at 10 uM incubated for 48 hrs by sulforhodamine B assay relative to control; details: read-out: Activity
SNB-19 = experiment: Antiproliferative activity against human SNB-19 cells assessed as cell growth at 10 uM incubated for 48 hrs by sulforhodamine B assay relative to control; details: read-out: Activity
SNB-75 = experiment: Antiproliferative activity against human SNB-75 cells assessed as cell growth at 10 uM incubated for 48 hrs by sulforhodamine B assay relative to control; details: read-out: Activity
U-251 = experiment: Antiproliferative activity against human U-251 cells assessed as cell growth at 10 uM incubated for 48 hrs by sulforhodamine B assay relative to control; details: read-out: Activity
MDA-MB-435 = experiment: Antiproliferative activity against human MDA-MB-435 cells assessed as cell growth at 10 uM incubated for 48 hrs by sulforhodamine B assay relative to control; details: read-out: Activity
SK-MEL-2 = experiment: Antiproliferative activity against human SK-MEL-2 cells assessed as cell growth at 10 uM incubated for 48 hrs by sulforhodamine B assay relative to control; details: read-out: Activity
SK-MEL-28 = experiment: Antiproliferative activity against human SK-MEL-28 cells assessed as cell growth at 10 uM incubated for 48 hrs by sulforhodamine B assay relative to control; details: read-out: Activity
SK-MEL-5 = experiment: Antiproliferative activity against human SK-MEL-5 cells assessed as cell growth at 10 uM incubated for 48 hrs by sulforhodamine B assay relative to control; details: read-out: Activity
UACC-257 = experiment: Antiproliferative activity against human UACC-257 cells assessed as cell growth at 10 uM incubated for 48 hrs by sulforhodamine B assay relative to control; details: read-out: Activity
UACC-62 = experiment: Antiproliferative activity against human UACC-62 cells assessed as cell growth at 10 uM incubated for 48 hrs by sulforhodamine B assay relative to control; details: read-out: Activity
OVCAR-5 = experiment: Antiproliferative activity against human OVCAR-5 cells assessed as cell growth at 10 uM incubated for 48 hrs by sulforhodamine B assay relative to control; details: read-out: Activity
OVCAR-8 = experiment: Antiproliferative activity against human OVCAR-8 cells assessed as cell growth at 10 uM incubated for 48 hrs by sulforhodamine B assay relative to control; details: read-out: Activity
NCI/ADR-RES = experiment: Antiproliferative activity against human NCI/ADR-RES cells assessed as cell growth at 10 uM incubated for 48 hrs by sulforhodamine B assay relative to control; details: read-out: Activity
SK-OV-3 = experiment: Antiproliferative activity against human SK-OV-3 cells assessed as cell growth at 10 uM incubated for 48 hrs by sulforhodamine B assay relative to control; details: read-out: Activity
A498 = experiment: Antiproliferative activity against human A498 cells assessed as cell growth at 10 uM incubated for 48 hrs by sulforhodamine B assay relative to control; details: read-out: Activity
ACHN = experiment: Antiproliferative activity against human ACHN cells assessed as cell growth at 10 uM incubated for 48 hrs by sulforhodamine B assay relative to control; details: read-out: Activity
SN12C = experiment: Antiproliferative activity against human SN12C cells assessed as cell growth at 10 uM incubated for 48 hrs by sulforhodamine B assay relative to control; details: read-out: Activity
TK-10 = experiment: Antiproliferative activity against human TK-10 cells assessed as cell growth at 10 uM incubated for 48 hrs by sulforhodamine B assay relative to control; details: read-out: Activity
UO-31 = experiment: Antiproliferative activity against human UO-31 cells assessed as cell growth at 10 uM incubated for 48 hrs by sulforhodamine B assay relative to control; details: read-out: Activity
PC-3 = experiment: Antiproliferative activity against human PC-3 cells assessed as cell growth at 10 uM incubated for 48 hrs by sulforhodamine B assay relative to control; details: read-out: Activity
DU-145 = experiment: Antiproliferative activity against human DU-145 cells assessed as cell growth at 10 uM incubated for 48 hrs by sulforhodamine B assay relative to control; details: read-out: Activity
MCF7 = experiment: Antiproliferative activity against human MCF7 cells assessed as cell growth at 10 uM incubated for 48 hrs by sulforhodamine B assay relative to control; details: read-out: Activity
BT-549 = experiment: Antiproliferative activity against human BT-549 cells assessed as cell growth at 10 uM incubated for 48 hrs by sulforhodamine B assay relative to control; details: read-out: Activity
T47D = experiment: Antiproliferative activity against human T47D cells assessed as cell growth at 10 uM incubated for 48 hrs by sulforhodamine B assay relative to control; details: read-out: Activity
MDA-MB-468 = experiment: Antiproliferative activity against human MDA-MB-468 cells assessed as cell growth at 10 uM incubated for 48 hrs by sulforhodamine B assay relative to control; details: read-out: Activity
HCT-116 [2] = experiment: Antiproliferative activity against human HCT-116 cells assessed as cell growth inhibition measured after 72 hrs by crystal violet staining based assay; details: HCT-116, 72 h

COc1cc(CNC(=O)CCCC/C=C/C(C)C)ccc1OCc1nnc(Nc2ccccc2F)o1
growth at 10 µM (HL-60(TB)): 89.7% | growth at 10 µM (K562): 60.4% | growth at 10 µM (MOLT-4): 82% | growth at 10 µM (SR): 67.3% | growth at 10 µM (NCI-H226): 64.5% | growth at 10 µM (NCI-H322M): 86.1% | growth at 10 µM (COLO 205): 104% | growth at 10 µM (HCC 2998): 90.8% | growth at 10 µM (HCT-116 [1]): 53.5% | growth at 10 µM (HT-29): 90% | growth at 10 µM (KM12): 78.8% | growth at 10 µM (SW-620): 98.9% | growth at 10 µM (SF-268): 45.5% | growth at 10 µM (SF-295): 48% | growth at 10 µM (SF-539): 48.2% | growth at 10 µM (SNB-19): 58.5% | growth at 10 µM (SNB-75): 57.8% | growth at 10 µM (U-251): 84% | growth at 10 µM (MDA-MB-435): 100% | growth at 10 µM (SK-MEL-2): 111% | growth at 10 µM (SK-MEL-28): 85.2% | growth at 10 µM (SK-MEL-5): 86.6% | growth at 10 µM (UACC-257): 98.2% | growth at 10 µM (UACC-62): 65.5% | growth at 10 µM (OVCAR-5): 77.7% | growth at 10 µM (OVCAR-8): 45.2% | growth at 10 µM (NCI/ADR-RES): 43.4% | growth at 10 µM (SK-OV-3): 48.6% | growth at 10 µM (A498): 92.5% | growth at 10 µM (ACHN): 56% | growth at 10 µM (SN12C): 70.5% | growth at 10 µM (TK-10): 97.7% | growth at 10 µM (UO-31): 52.8% | growth at 10 µM (PC-3): 72.5% | growth at 10 µM (DU-145): 88.7% | growth at 10 µM (MCF7): 66.9% | growth at 10 µM (BT-549): 77% | growth at 10 µM (T47D): 65% | growth at 10 µM (MDA-MB-468): 58.9% | IC50 (HCT-116 [2]): 10.5 µM
